The numbers were not newly measured in patent US5439687A, “Dosage forms having zero-order dihydropyridine calcium antagonist release” (priority 1992, dated 1995), which cites them from elsewhere.

Structures are written as SMILES.

The conditions of the data set: rapid influx rate with high plasma level peaks.

For the molecule `COC(=O)C1=C(C)NC(C)=C(C(=O)OC)C1c1ccccc1[N+](=O)[O-]` [nifedipine], the “Side-effect rate and blood pressure lowering effectiveness” value was “associated with an increased side-effect rate (tachycardia) and reduced effectiveness in lowering blood pressure”.
